Results on 30 compounds are retold here after BindingDB's records for doi:10.1021/jm960441m (Upjohn, 1997).

One test deals with T1, Dimer of Gag-Pol polyprotein [489-587] (Human immunodeficiency virus 1, UniProt P12497).
T1 construct: 489-587
Description: Protease Inhibition Assay.
Settings: not given
The text has this: HIV-1 protease was purified and refolded from E. coli inclusion bodies. […] In the presence of HIV-l protease, the substrate is rapidly cleaved into two parts. The biotinylated amino terminal fragment binds to the avidin beads while the FITC-containing carboxy1 terminal fragment is removed through the membrane. […] The bound fluorescence is obtained by processing on an IDEXX Screen Machine. Determination of Ki values with this assay requires analysis under conditions in which substrate concentration resides substantially below Km and the inhibitor concentrations greatly exceeds the Ki value and the enzyme concentration.
Compound `O=c1oc2c(c(O)c1C(c1cccc(NS(=O)(=O)c3ccc(F)cc3)c1)C1CC1)CCCCCC2` (stereo not given) showed a Ki of 3.1 nM. Still for that read-out and setting: in the case of `O=c1oc2c(c(O)c1C(c1cccc(NS(=O)(=O)c3ccc(Cl)c(Cl)c3Cl)c1)C1CC1)CCCCCC2` (stereo not given) [2,3,4-trichloro-N-{3-[cyclopropyl({4-hydroxy-2-oxo-2H,5H,6H,7H,8H,9H,10H-cycloocta[b]pyran-3-yl})methyl]phenyl}benzene-1-sulfonamide] it was 8.8 nM.

For the compound `O=c1oc2c(c(O)c1C(c1cccc(NS(=O)(=O)c3cccc(Cl)c3Cl)c1)C1CC1)CCCCCC2` (stereo not given) [2,3-dichloro-N-{3-[cyclopropyl({4-hydroxy-2-oxo-2H,5H,6H,7H,8H,9H,10H-cycloocta[b]pyran-3-yl})methyl]phenyl}benzene-1-sulfonamide], affinity was put at a Ki of 7.6 nM.

As to `O=c1oc2c(c(O)c1C(c1cccc(NS(=O)(=O)c3ccc(Cl)cc3Cl)c1)C1CC1)CCCCCC2` (stereo not given) [2,4-dichloro-N-{3-[cyclopropyl({4-hydroxy-2-oxo-2H,5H,6H,7H,8H,9H,10H-cycloocta[b]pyran-3-yl})methyl]phenyl}benzene-1-sulfonamide], the affinity, expressed as Ki, was 6.2 nM. For the compound `O=c1oc2c(c(O)c1C(c1cccc(NS(=O)(=O)c3cc(Cl)ccc3Cl)c1)C1CC1)CCCCCC2` (stereo not given) [2,5-dichloro-N-{3-[cyclopropyl({4-hydroxy-2-oxo-2H,5H,6H,7H,8H,9H,10H-cycloocta[b]pyran-3-yl})methyl]phenyl}benzene-1-sulfonamide], the Ki turned out to be 74 nM. Consider `O=c1oc2c(c(O)c1C(c1cccc(NS(=O)(=O)c3c(Cl)cccc3Cl)c1)C1CC1)CCCCCC2` (stereo not given) [2,6-dichloro-N-{3-[cyclopropyl({4-hydroxy-2-oxo-2H,5H,6H,7H,8H,9H,10H-cycloocta[b]pyran-3-yl})methyl]phenyl}benzene-1-sulfonamide], for which the Ki is greater than 200 nM. The same measure, in the same setting: the value for `O=c1oc2c(c(O)c1C(c1cccc(NS(=O)(=O)c3ccc(Cl)c(Cl)c3)c1)C1CC1)CCCCCC2` (stereo not given) [3,4-dichloro-N-{3-[cyclopropyl({4-hydroxy-2-oxo-2H,5H,6H,7H,8H,9H,10H-cycloocta[b]pyran-3-yl})methyl]phenyl}benzene-1-sulfonamide] was 4.1 nM; that for `O=c1oc2c(c(O)c1C(c1cccc(NS(=O)(=O)c3cc(Cl)cc(Cl)c3)c1)C1CC1)CCCCCC2` (stereo not given) [3,5-dichloro-N-{3-[cyclopropyl({4-hydroxy-2-oxo-2H,5H,6H,7H,8H,9H,10H-cycloocta[b]pyran-3-yl})methyl]phenyl}benzene-1-sulfonamide] was 6.9 nM.

Compound `[N-]=[N+]=Nc1ccc(S(=O)(=O)Nc2cccc(C(c3c(O)c4c(oc3=O)CCCCCC4)C3CC3)c2)cc1` (stereo not given) [4-azido-N-{3-[cyclopropyl({4-hydroxy-2-oxo-2H,5H,6H,7H,8H,9H,10H-cycloocta[b]pyran-3-yl})methyl]phenyl}benzene-1-sulfonamide] registered an inhibition constant (Ki) of 2.6 nM. The compound `O=c1oc2c(c(O)c1C(c1cccc(NS(=O)(=O)c3ccc(Br)cc3)c1)C1CC1)CCCCCC2` (stereo not given) [4-bromo-N-{3-[cyclopropyl({4-hydroxy-2-oxo-2H,5H,6H,7H,8H,9H,10H-cycloocta[b]pyran-3-yl})methyl]phenyl}benzene-1-sulfonamide] yielded a Ki of 2.1 nM. Regarding `O=c1oc2c(c(O)c1C(c1cccc(NS(=O)(=O)c3ccc(Cl)cc3)c1)C1CC1)CCCCCC2` (stereo not given) [4-chloro-N-{3-[cyclopropyl({4-hydroxy-2-oxo-2H,5H,6H,7H,8H,9H,10H-cycloocta[b]pyran-3-yl})methyl]phenyl}benzene-1-sulfonamide], the affinity corresponds to a Ki of 2.5 nM. For `N#Cc1ccc(S(=O)(=O)Nc2cccc(C(c3c(O)c4c(oc3=O)CCCCCC4)C3CC3)c2)nc1` (stereo not given) [5-cyano-N-{3-[cyclopropyl({4-hydroxy-2-oxo-2H,5H,6H,7H,8H,9H,10H-cycloocta[b]pyran-3-yl})methyl]phenyl}pyridine-2-sulfonamide], the affinity corresponds to a Ki of 1 nM.

In turn, `O=c1oc2c(c(O)c1C(c1cccc(NS(=O)(=O)c3cccc4cccnc34)c1)C1CC1)CCCCCC2` (stereo not given) [N-[3-[Cyclopropyl(5,6,7,8,9,10-hexahydro-4-hydroxy-2-oxo-2H-cycloocta[b]pyran-3-yl)methyl]phenyl]-8-quinolinesulfonamide] came in with an inhibitory constant (Ki) of 1.9 nM.

Compound `O=c1oc2c(c(O)c1C(c1cccc(NS(=O)(=O)c3cscn3)c1)C1CC1)CCCCCC2` (stereo not given) [N-{3-[cyclopropyl({4-hydroxy-2-oxo-2H,5H,6H,7H,8H,9H,10H-cycloocta[b]pyran-3-yl})methyl]phenyl}-1,3-thiazole-4-sulfonamide] showed an inhibitory constant (Ki) of 1.6 nM. The same measure, in the same setting: in the case of `O=c1oc2c(c(O)c1C(c1cccc(NS(=O)(=O)c3ccc(F)cc3F)c1)C1CC1)CCCCCC2` (stereo not given) [N-{3-[cyclopropyl({4-hydroxy-2-oxo-2H,5H,6H,7H,8H,9H,10H-cycloocta[b]pyran-3-yl})methyl]phenyl}-2,4-difluorobenzene-1-sulfonamide] it was 4.1 nM; in that of `Cc1cccc(C)c1S(=O)(=O)Nc1cccc(C(c2c(O)c3c(oc2=O)CCCCCC3)C2CC2)c1` (stereo not given) [N-{3-[cyclopropyl({4-hydroxy-2-oxo-2H,5H,6H,7H,8H,9H,10H-cycloocta[b]pyran-3-yl})methyl]phenyl}-2,6-dimethylbenzene-1-sulfonamide], greater than 200 nM. For `O=c1oc2c(c(O)c1C(c1cccc(NS(=O)(=O)c3ccc(C(F)(F)F)c(C(F)(F)F)c3)c1)C1CC1)CCCCCC2` (stereo not given) [N-{3-[cyclopropyl({4-hydroxy-2-oxo-2H,5H,6H,7H,8H,9H,10H-cycloocta[b]pyran-3-yl})methyl]phenyl}-3,4-bis(trifluoromethyl)benzene-1-sulfonamide], the Ki is 47 nM. Take `O=c1oc2c(c(O)c1C(c1cccc(NS(=O)(=O)c3ccc(OC(F)(F)F)cc3)c1)C1CC1)CCCCCC2` (stereo not given) [N-{3-[cyclopropyl({4-hydroxy-2-oxo-2H,5H,6H,7H,8H,9H,10H-cycloocta[b]pyran-3-yl})methyl]phenyl}-4-(trifluoromethoxy)benzene-1-sulfonamide]: the Ki came to 4 nM. `O=c1oc2c(c(O)c1C(c1cccc(NS(=O)(=O)c3ccc(C(F)(F)F)cc3)c1)C1CC1)CCCCCC2` (stereo not given) [N-{3-[cyclopropyl({4-hydroxy-2-oxo-2H,5H,6H,7H,8H,9H,10H-cycloocta[b]pyran-3-yl})methyl]phenyl}-4-(trifluoromethyl)benzene-1-sulfonamide] came in with a Ki of 6.2 nM.

The test is the same for the next values; noted with them: pH 5; 22 °C.
As for `O=c1oc2c(c(O)c1C(c1cccc(NS(=O)(=O)c3ccccc3Cl)c1)C1CC1)CCCCCC2` (stereo not given) [2-chloro-N-{3-[cyclopropyl({4-hydroxy-2-oxo-2H,5H,6H,7H,8H,9H,10H-cycloocta[b]pyran-3-yl})methyl]phenyl}benzene-1-sulfonamide], the Ki turned out to be 9.3 nM. In turn, `N#Cc1ccccc1S(=O)(=O)Nc1cccc(C(c2c(O)c3c(oc2=O)CCCCCC3)C2CC2)c1` (stereo not given) [2-cyano-N-{3-[cyclopropyl({4-hydroxy-2-oxo-2H,5H,6H,7H,8H,9H,10H-cycloocta[b]pyran-3-yl})methyl]phenyl}benzene-1-sulfonamide] registered a Ki of 7.4 nM. The same measure, in the same setting: in the case of `O=c1oc2c(c(O)c1C(c1cccc(NS(=O)(=O)c3cccc(Br)c3)c1)C1CC1)CCCCCC2` (stereo not given) [3-bromo-N-{3-[cyclopropyl({4-hydroxy-2-oxo-2H,5H,6H,7H,8H,9H,10H-cycloocta[b]pyran-3-yl})methyl]phenyl}benzene-1-sulfonamide] it was 2.6 nM. In the case of `O=c1oc2c(c(O)c1C(c1cccc(NS(=O)(=O)c3cccc(Cl)c3)c1)C1CC1)CCCCCC2` (stereo not given) [3-chloro-N-{3-[cyclopropyl({4-hydroxy-2-oxo-2H,5H,6H,7H,8H,9H,10H-cycloocta[b]pyran-3-yl})methyl]phenyl}benzene-1-sulfonamide], the Ki was determined as 2.7 nM. For `O=c1oc2c(c(O)c1C(c1cccc(NS(=O)(=O)/C=C/c3ccccc3)c1)C1CC1)CCCCCC2` (stereo not given) [(E)-N-{3-[cyclopropyl({4-hydroxy-2-oxo-2H,5H,6H,7H,8H,9H,10H-cycloocta[b]pyran-3-yl})methyl]phenyl}-2-phenylethene-1-sulfonamide], the affinity, expressed as Ki, was 3 nM.

`O=c1oc2c(c(O)c1C(c1cccc(NS(=O)(=O)Cc3ccccc3)c1)C1CC1)CCCCCC2` (stereo not given) [N-[3-[Cyclopropyl(5,6,7,8,9,10-hexahydro-4-hydroxy-2-oxo-2H-cycloocta[b]pyran-3-yl)methyl]phenyl]benzenemethanesulfonamide] gave a Ki of 13 nM. `O=c1oc2c(c(O)c1C(c1cccc(NS(=O)(=O)c3ccccc3C(F)(F)F)c1)C1CC1)CCCCCC2` (stereo not given) [N-{3-[cyclopropyl({4-hydroxy-2-oxo-2H,5H,6H,7H,8H,9H,10H-cycloocta[b]pyran-3-yl})methyl]phenyl}-2-(trifluoromethyl)benzene-1-sulfonamide] gave a Ki of 21 nM. `O=c1oc2c(c(O)c1C(c1cccc(NS(=O)(=O)c3ccccc3F)c1)C1CC1)CCCCCC2` (stereo not given) [N-{3-[cyclopropyl({4-hydroxy-2-oxo-2H,5H,6H,7H,8H,9H,10H-cycloocta[b]pyran-3-yl})methyl]phenyl}-2-fluorobenzene-1-sulfonamide] showed a Ki of 11 nM. Turning to `O=c1oc2c(c(O)c1C(c1cccc(NS(=O)(=O)CCc3ccccc3)c1)C1CC1)CCCCCC2` (stereo not given) [N-{3-[cyclopropyl({4-hydroxy-2-oxo-2H,5H,6H,7H,8H,9H,10H-cycloocta[b]pyran-3-yl})methyl]phenyl}-2-phenylethane-1-sulfonamide], the Ki was determined as 3.9 nM. Regarding `O=c1oc2c(c(O)c1C(c1cccc(NS(=O)(=O)c3cccc(C(F)(F)F)c3)c1)C1CC1)CCCCCC2` (stereo not given) [N-{3-[cyclopropyl({4-hydroxy-2-oxo-2H,5H,6H,7H,8H,9H,10H-cycloocta[b]pyran-3-yl})methyl]phenyl}-3-(trifluoromethyl)benzene-1-sulfonamide], the affinity, expressed as Ki, was 3 nM. For `O=c1oc2c(c(O)c1C(c1cccc(NS(=O)(=O)c3cccc([N+](=O)[O-])c3)c1)C1CC1)CCCCCC2` (stereo not given) [N-{3-[cyclopropyl({4-hydroxy-2-oxo-2H,5H,6H,7H,8H,9H,10H-cycloocta[b]pyran-3-yl})methyl]phenyl}-3-nitrobenzene-1-sulfonamide], the Ki was determined as 4.7 nM.

As usually defined, the Ki is the equilibrium dissociation constant of an inhibitor or competing ligand from its target. A lower Ki goes with higher affinity.
